Test results as given in US11161876B2, “Anti-inflammatory nanofibers” (Northwestern University, priority 2015, dated 2021).
Entries after “also recorded” stand apart in the source; their conditions may differ. * marks the point of attachment. C16 alkyl = CCCCCCCCCCCCCCCC*

Assays:
[1] = test system: TNFα; experiment: TNFα expression in regenerated bladder tissue (immunofluorescence); assay type: in vivo, rat; conditions: for Cytokine expression (shown as percentage of cells staining positive) Pro-inflammatory TNFα: 5 weeks post-augmentation, means ± SE; for percentage of cells staining positive for TNFα: 10 days post-augmentation
Description: (§1) Athymic female rats (weighing ˜200 g and 8-10 weeks old; National Cancer Institute Animal Production Program) underwent bladder augmentation (ref. 15; herein incorporated by reference in its entirety). Athymic rats were chosen for this study to solely examine the innate immune response to inflammation without influence of the adaptive immune response. In order to induce anesthesia, animals were given intraperitoneal injections of 60 mg/kg ketamine and 5 mg/kg xylazine. A second injection consisting of Buprenex (1 mg/kg) was administered subcutaneously to alleviate any pain/discomfort during and following surgical procedures. An approximate 1.5 cm midline vertical skin incision was created to expose the abdominal fascia and muscles. This was immediately followed by the separation of the wall leading to the identification of the bladder. An approximate 70% supratrigonal cystectomy was performed from anterior to posterior creating a clamshell. Immediately prior to bladder augmentation procedures, samples of the pro-inflammatory biological scaffold, small intestinal submucosa (SIS (0.5×0.5 cm); Cook Biotech.) (refs. 12,13,16; herein incorporated by reference in their entireties) were thoroughly dip-coated separately in one of the previously described AIF-PAs following gelation procedures. The sections of SIS were dip-coated for approximately 20 seconds and allowed to adhere to the SIS for an additional 30 seconds. Dip-coating procedures were performed at room temperature in air. The cystectomized bladder defect was then augmented with: 1) SIS (non-AIF-PA coated SIS; n=8 animals over both time-points); 2) AIF-PA1 coated SIS (denoted as SIS/AIF-PA1; n=11 animals over both time-points); 3) AIF-PA2 coated SIS (denoted as SIS/AIF-PA2; n=8 animals over both time-points); 4) AIF-PA3 coated SIS (denoted as SIS/AIF-PA3; n=3); 5) AIF-PA4 coated SIS (denoted as SIS/AIF-PA4; n=3 animals); 6) AIF-PA5 coated SIS (denoted as SIS/AIF-PA5; n=3 animals); and 7) AIFC-PA6 coated SIS (denoted as SIS/AIFC-PA6; n=9 animals over both time-points). The bladder was finally covered with omentum after being closed in a watertight manner utilizing 7-0 polyglactin suture. The abdominal wall was then closed in a single layer with 5-0 ethibond running suture and the skin re-approximated with 9 mm autoclips. Each group was sacrificed at 10 day and 5 week time-points.
(§2) Tissue sections comprised of SIS alone, SIS/AIF-PA1, SIS/AIF-PA2, and SIS/AIF-PA6 augmentations were subjected to immunofluorescence staining by initially undergoing antigen retrieval which consisted of 15 min of boiling in citrate buffer (0.01M citrate solution, pH 6.0 with 0.05% Tween-20) followed by cooling at room temperature for approximately 20 minutes. The antibody staining process consisted of a blocking step for 15 min in bovine serum albumin (BSA, 5 mg/ml) followed by a 40 minutes incubation at room temperature with the primary antibody. After washing with DPBS, slides were incubated for 30 min with a secondary antibody and eventually rinsed with DPBS and air dried. Slides were mounted with Vectashield (Vector Laboratories). Primary antibodies were directed against epitopes for the inflammatory markers CD68 (macrophage) (refs. 18,19; herein incorporated by reference in their entireties) MPO (neutrophil) (ref. 20; herein incorporated by reference in its entirety) or the inflammation-related proteins IL1β, TNFα, IL-10, IL-13, CD206 (M2 macrophage) (refs. 21-25; herein incorporated by reference in their entireties) and CD86 (M1 macrophage) (ref. 26; herein incorporated by reference in its entirety). Antibodies directed against the ECM in regenerating bladder tissue (including COL4A3 and fibronectin) were also utilized. Alexa Red 555 or FITC conjugated secondary antibodies (Molecular Probes) were utilized for visualization (ref. 15; herein incorporated by reference in its entirety). […]

[2] = test system: CD68+ macrophages; experiment: Immunofluorescence quantification of CD68+ macrophages in regenerated bladder tissue; assay type: in vivo, rat
Description: as §1, §2

[3] = test system: IL-1β; experiment: IL-1β expression in regenerated bladder tissue (immunofluorescence); assay type: in vivo, rat; conditions: for Cytokine expression (shown as percentage of cells staining positive) Pro-inflammatory IL-1β: 5 weeks post-augmentation, means ± SE; for percentage of cells staining positive for IL-1β: 10 days post-augmentation
Description: as §1, §2

[4] = test system: Rat Bladder Augmentation Model; experiment: Bladder tissue collagen quantification (Masson's Trichrome); assay type: in vivo; conditions: for mean level of collagen in regenerated bladder tissue: means±SE; for collagen levels, in words: 10 days post-augmentation, compared between groups
Description: as §1
Explanted bladder specimens encompassing the entire thickness of the bladder were isolated immediately following euthanasia and processed (ref. 15; herein incorporated by reference in its entirety). Specimens were fixed in a 10% buffered formalin phosphate (Fisher Scientific, Inc.) solution followed by a series of graded ethanol exchanges then embedded in paraffin (Fisher Scientific). Embedded tissues were sectioned onto glass slides at a thickness of 10 μm using a RM2125 RT Microtome (Leica) onto glass slides and subjected to staining with Masson's Trichrome (Sigma-Aldrich Corp.) reagent. The paraffin was removed from tissue containing slides using a hot plate at 62° C. for 6 minutes and was followed by treatment with xylenes, graded ethanol washes and DI water. Slides were placed in Bouin's solution (Sigma-Aldrich Corp.) for approximately 15 min then rinsed under running tap water. The samples were then stained 5 minutes with Hematoxylin and rinsed with running water and subsequently stained with Scarlet-Acid Fuchsin (Sigma-Aldrich Corp.). Slides were rinsed again with DI water and placed into a mixture of PTA/PMA, followed by Aniline Blue solution and a 1% acetic acid wash. Finally, slides were placed in 95-100% ethanol and rinsed in xylene. Following air drying, a coverslip was placed over the specimen sample and secured with Permaslip (Alban Scientific Inc).
Bladder tissue specimens were evaluated for collagen content (refs. 13,15,17; herein incorporated by reference in their entireties). […]

[5] = test system: Rat Bladder Augmentation Model; experiment: Urodynamic testing (UDS) of augmented bladders; assay type: in vivo; conditions: for intravesical pressure during voiding: post-augmentation
Description: as §1
The bladders of anesthetized athymic rats were exposed through the abdomen as previously described. A 20 gauge cannula (Becton Dickinson and Co.) was delicately placed into the bladder through the dome in order to obtain intravesical measurements. The cannula was connected to the Pump 11 Elite Syringe Pump (Harvard Apparatus) and to a physiological pressure transducer (SP844, MEMSCAP). The pressure transducer was connected to a bridge amplifier (Model FE221; AD Instruments). Continuous reading of the transvesical pressure was measured and plotted using LabChart 7.3 software (AD Instruments). The fill rate for each study ranged from 150-200 uL per minute. Bladder capacity was measured by a modified protocol (ref. 13; herein incorporated by reference in its entirety). Sterile DPBS was injected into the bladder using a 27 gauge needle in 50 μl increments until fluid leakage was observed from the urethra of the animal. The total volume injected was then noted. This procedure was repeated at least three times per animal. Urine was evacuated from the bladder prior to the start of any bladder capacity measurements utilizing a sterile 27 gauge needle. Urodynamic and bladder capacity measurements were performed immediately prior to augmentation procedures and immediately prior to euthanization.
Bladders underwent urodynamic testing (UDS) pre- and post-augmentation. Bladders were gradually filled with sterile saline until a bladder contraction occurred. Bladder pressures rose during the filling until bladder contractions occurred at intravesical pressures of 30-40 cm H2O (FIG. 5, panels A, C, E, and G). […]

[6] = post-augmentation vs pre-augmentation

## C16-VVVAAAEEEKLMSQKMVD (SEQ ID NO:6) ({C16 alkyl}-VVVAAAEEEKLMSQKMVD-NH2) [SIS/AIFC-PA6, reference compound]
[1]
  Cytokine expression (shown as percentage of cells staining positive) Pro-inflammatory TNFα: 42.8 ± 2.2 percentage
  percentage of cells staining positive for TNFα: 65.1±5.1%
[2]; 5 weeks post-augmentation
  percentage of cells CD68+: 42.0±2.6%
[3]
  Cytokine expression (shown as percentage of cells staining positive) Pro-inflammatory IL-1β: 42.9 ± 1.8 percentage
  percentage of cells staining positive for IL-1β: 63.3±2.4%
[4]; 5W post-augmentation
  mean level of collagen in regenerated bladder tissue: 68.8±2.7%
[4]; 10D post-augmentation
  mean level of collagen in regenerated bladder tissue: 71.5±1.4%
[5]; [6]
  intravesical / voiding pressures, in words: unchanged or even slightly elevated; also recorded: failed to decrease intravesical pressures

## C16-VVVAAAEEEHDMNKVLDL (SEQ ID NO:2) ({C16 alkyl}-VVVAAAEEEHDMNKVLDL-NH2) [SIS/AIF-PA2, anti-inflammatory peptide amphiphile, tested dip-coated on small intestinal submucosa (SIS) scaffold]
[1]
  Cytokine expression (shown as percentage of cells staining positive) Pro-inflammatory TNFα: 14.6 ± 1.7 percentage
  percentage of cells staining positive for TNFα: 26.3±2.5%
[2]; 5 weeks post-augmentation
  percentage of cells CD68+: 16.5±1.6%
[2]; 10 days post-augmentation
  percentage of cells CD68+: 23.1±3.3%
[3]
  Cytokine expression (shown as percentage of cells staining positive) Pro-inflammatory IL-1β: 11.5 ± 2.7 percentage
  percentage of cells staining positive for IL-1β: 21.2±2.4%
[4]; 5W post-augmentation
  mean level of collagen in regenerated bladder tissue: 58.0±0.6%
[4]; 10D post-augmentation
  mean level of collagen in regenerated bladder tissue: 58.6±0.4%
[4]
  collagen levels, in words: lesser degrees of collagen
[5]
  intravesical pressure during voiding: approximately 35 cm H2O
[5]; [6]
  intravesical / voiding pressures, in words: very modest decrease in bladder intravesical pressure

## C16-VVVAAAEEEMQMKKVLDS (SEQ ID NO:1) ({C16 alkyl}-VVVAAAEEEMQMKKVLDS-NH2) [SIS/AIF-PA1, anti-inflammatory peptide amphiphile, tested dip-coated on small intestinal submucosa (SIS) scaffold]
[1]
  Cytokine expression (shown as percentage of cells staining positive) Pro-inflammatory TNFα: 17.4 ± 2.9 percentage
  percentage of cells staining positive for TNFα: 32.8±2.5%
[2]; 5 weeks post-augmentation
  percentage of cells CD68+: 17.6±1.8%
[2]; 10 days post-augmentation
  percentage of cells CD68+: 33.4±2.0%
[3]
  Cytokine expression (shown as percentage of cells staining positive) Pro-inflammatory IL-1β: 12.9 ± 2.0 percentage
  percentage of cells staining positive for IL-1β: 28.2±2.4%
[4]; 5W post-augmentation
  mean level of collagen in regenerated bladder tissue: 55.0±1.2%
[4]; 10D post-augmentation
  mean level of collagen in regenerated bladder tissue: 59.1±1.1%
[4]
  collagen levels, in words: lesser degrees of collagen
[5]
  intravesical pressure during voiding: approximately 25 cm H2O
[5]; [6]
  bladder compliance, in words: higher bladder compliance; also recorded: increase in compliance
  intravesical / voiding pressures, in words: decreased intravesical pressures
